Measurements from PubChem BioAssay AID588639 (Sanford-Burnham Center for Chemical Genomics, 2011).
pIC50: −log10 of the molar value. Where “and” joins values, the source holds several entries; their conditions need not be identical. Equal entries are not always repeated. Calls of active or inactive are those of the source. No rule for the calls is given here.

These compounds were tested against Alkaline phosphatase, tissue-nonspecific isozyme (Homo sapiens) (UniProt P05186) (assay: inhibition of tissue-nonspecific alkaline phosphatase – biochemical, set 2, selectivity assay for mouse IAP inhibitor project, SAR follow-up (AID 588639)). Settings: purified human TNAP enzyme activity, counter-screen for mouse IAP.
Alkaline phosphatase, tissue-nonspecific isozyme (Homo sapiens), sequence (P05186 whole entry, looked up): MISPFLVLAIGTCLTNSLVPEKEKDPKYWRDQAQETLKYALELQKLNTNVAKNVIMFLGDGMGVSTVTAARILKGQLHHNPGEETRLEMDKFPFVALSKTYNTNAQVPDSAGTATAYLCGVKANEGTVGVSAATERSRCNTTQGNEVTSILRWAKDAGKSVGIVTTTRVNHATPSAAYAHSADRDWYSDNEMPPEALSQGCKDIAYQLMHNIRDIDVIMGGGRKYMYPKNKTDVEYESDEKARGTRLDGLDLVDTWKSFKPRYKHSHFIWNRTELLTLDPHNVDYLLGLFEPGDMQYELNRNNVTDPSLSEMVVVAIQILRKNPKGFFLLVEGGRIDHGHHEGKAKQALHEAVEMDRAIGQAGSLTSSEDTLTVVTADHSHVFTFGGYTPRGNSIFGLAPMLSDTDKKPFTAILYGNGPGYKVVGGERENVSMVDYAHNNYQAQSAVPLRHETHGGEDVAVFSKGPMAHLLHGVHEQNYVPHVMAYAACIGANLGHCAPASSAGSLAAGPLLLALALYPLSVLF

Row | SMILES | IC50 | pIC50
1 | O=C(N/N=C/c1ccccc1C(F)(F)F)c1cc(O)c(O)c(O)c1 | > 100 µM (inactive) | 
2 | O=C(CCNS(=O)(=O)c1ccc2[nH]c(=O)oc2c1)NCc1ccccc1Cl | > 100 µM (inactive) | 
3 | CSc1cccc(NC(=O)C2CCCN(S(=O)(=O)c3ccc4c(c3)oc(=O)n4C)C2)c1 (stereo not drawn) | > 100 µM (inactive) | 
4 | O=C(NCc1ccc(F)cc1)C1CCCN(S(=O)(=O)c2ccc3[nH]c(=O)oc3c2)C1 (stereo not drawn) | > 100 µM (inactive) | 
5 | O=C(CCCNS(=O)(=O)c1ccc2[nH]c(=O)oc2c1)NCc1ccccc1Cl | 80.9 µM and > 100 µM (inactive) | 
6 | N#Cc1cccc(NS(=O)(=O)c2ccc3[nH]c(=O)oc3c2)c1 | > 100 µM (inactive) | 
7 | O=C(N/N=C/c1ccccc1F)c1ccccc1OCc1ccccc1 | > 100 µM (inactive) | 
8 | N#Cc1cccc(NC(=O)CNS(=O)(=O)c2ccc3[nH]c(=O)oc3c2)c1 | > 100 µM (inactive) | 
9 | CC(C)c1ccc(NC(=O)C2CCCN(S(=O)(=O)c3ccc4c(c3)oc(=O)n4C)C2)cc1 (stereo not drawn) | > 100 µM (inactive) | 
10 | CCOc1cc(C(=O)N/N=C/c2ccccc2F)cc(OCC)c1OCC | > 100 µM (inactive) | 
11 | Cc1ccc(C)c(NC(=O)CCNS(=O)(=O)c2ccc3ccccc3c2)c1 | > 100 µM (inactive) | 
12 | COc1ccc(CNC(=O)CCCNS(=O)(=O)c2ccc3[nH]c(=O)oc3c2)c(OC)c1 | > 100 µM (inactive) | 
13 | CCOc1ccc(CNC(=O)C2CCCN(S(=O)(=O)c3ccc4[nH]c(=O)oc4c3)C2)cc1OC (stereo not drawn) | > 100 µM (inactive) | 
14 | O=C(CCNS(=O)(=O)c1ccc2[nH]c(=O)oc2c1)NCc1ccc(O)c(O)c1 | > 100 µM (inactive) | 
15 | O=C(NN=Cc1ccccc1F)c1ccc(O)cc1 | > 100 µM (inactive) | 
16 | CC(C)(C)c1ccc(/C=N/NC(=O)c2cc(O)c(O)c(O)c2)cc1 | > 100 µM (inactive) | 
17 | Cc1ccc(CNC(=O)CCNS(=O)(=O)c2ccc3[nH]c(=O)oc3c2)cc1 | > 100 µM (inactive) | 
18 | O=C(CCCNS(=O)(=O)c1ccc2[nH]c(=O)oc2c1)NCCc1ccc(O)cc1 |  | 4.13
19 | COc1ccc(OC)c(NC(=O)C2CCCN(S(=O)(=O)c3ccc4c(c3)oc(=O)n4C)C2)c1 (stereo not drawn) | > 100 µM (inactive) | 
20 | O=C(CCNS(=O)(=O)c1ccc2[nH]c(=O)oc2c1)NCc1ccc(F)cc1 | > 100 µM (inactive) | 
21 | O=C(CCS(=O)(=O)Nc1ccc2[nH]c(=O)oc2c1)NCc1cccc(F)c1 | > 100 µM (inactive) | 
22 | O=C(N/N=C/c1ccc(F)cc1F)c1ccc(O)cc1 | > 100 µM (inactive) | 
23 | COc1cccc(C(=O)N/N=C/c2ccccc2F)c1 | > 100 µM (inactive) | 
24 | O=C(CCNS(=O)(=O)c1ccc2[nH]c(=O)oc2c1)NCCc1ccc(O)cc1 | > 100 µM (inactive) | 
25 | CC(=NNC(=O)c1ccccc1OCCOc1ccccc1)c1ccccc1F | > 100 µM (inactive) | 
26 | O=C(CCNS(=O)(=O)c1ccc2[nH]c(=O)oc2c1)NCc1ccccc1F | > 100 µM (inactive) | 
27 | O=C(CCNS(=O)(=O)c1ccc2[nH]c(=O)oc2c1)NCc1ccccc1 | > 100 µM (inactive) | 

Row | SMILES | IC50 | pIC50
28 | O=C(N/N=C/c1c(F)cccc1Cl)c1ccc(O)cc1 | > 100 µM (inactive) | 
29 | COc1ccc(C(=O)N/N=C/c2c(F)cccc2Cl)cc1OC | > 100 µM (inactive) | 
30 | N#Cc1cccc(CNC(=O)CCNS(=O)(=O)c2ccc3[nH]c(=O)oc3c2)c1 | > 100 µM (inactive) | 
31 | O=C(N/N=C/c1ccccc1F)c1ccc(O)cc1O | > 100 µM (inactive) | 
32 | O=C(N/N=C/c1cccc(Cl)c1Cl)c1cc(O)c(O)c(O)c1 | > 100 µM (inactive) | 
33 | COc1ccc(NS(=O)(=O)c2ccc3[nH]c(=O)oc3c2)cc1OC | > 100 µM (inactive) | 
34 | O=C(CCNS(=O)(=O)c1ccc2[nH]c(=O)oc2c1)NCCc1ccc2c(c1)OCO2 | > 100 µM (inactive) | 
35 | COc1cccc(CNC(=O)CNS(=O)(=O)c2ccc3[nH]c(=O)oc3c2)c1 | > 100 µM (inactive) and 73.8 µM | 
36 | Cc1ccc(CNC(=O)C2CCCN(S(=O)(=O)c3ccc4[nH]c(=O)oc4c3)C2)cc1 (stereo not drawn) | > 100 µM (inactive) | 
37 | Cc1ccc(C)c(NC(=O)C2CCCN(S(=O)(=O)c3ccc4c(c3)oc(=O)n4C)C2)c1 (stereo not drawn) | > 100 µM (inactive) | 
38 | Cc1cc(NC(=O)CCNS(=O)(=O)c2ccc3[nH]c(=O)oc3c2)ccc1Br | > 100 µM (inactive) | 
39 | COc1ccc(NC(=O)CCNS(=O)(=O)c2ccc3c(c2)CCC3)cc1OC | > 100 µM (inactive) | 
40 | O=C(NCc1ccccc1)C1CCCN(S(=O)(=O)c2ccc3[nH]c(=O)oc3c2)C1 (stereo not drawn) | > 100 µM (inactive) | 
41 | COc1ccc(CNC(=O)CCNS(=O)(=O)c2ccc3ccccc3c2)c(OC)c1 | > 100 µM (inactive) | 
42 | O=C(CCNS(=O)(=O)c1ccc2[nH]c(=O)oc2c1)NCc1ccc(C(F)(F)F)cc1 | > 100 µM (inactive) | 
43 | Cc1ccccc1CNC(=O)C1CCCN(S(=O)(=O)c2ccc3[nH]c(=O)oc3c2)C1 (stereo not drawn) | > 100 µM (inactive) | 
44 | O=c1[nH]c2ccc(S(=O)(=O)NCc3ccc4c(c3)OCO4)cc2o1 | > 100 µM (inactive) | 
45 | Cc1ccc(NC(=O)CCNS(=O)(=O)c2ccc3c(c2)oc(=O)n3C)cc1 | > 100 µM (inactive) | 
46 | Cc1ccc(C)c(NC(=O)CCNS(=O)(=O)c2ccc3[nH]c(=O)oc3c2)c1 | > 100 µM (inactive) | 
47 | O=C(N/N=C/c1ccc(F)c(Br)c1)c1cc(O)c(O)c(O)c1 | > 100 µM (inactive) | 
48 | COc1cccc(NC(=O)CCNS(=O)(=O)c2ccc3c(c2)oc(=O)n3C)c1 | > 100 µM (inactive) | 
49 | Cc1ccc(NC(=O)CCNS(=O)(=O)c2ccc3c(c2)oc(=O)n3C)c(C)c1 | > 100 µM (inactive) | 
50 | COc1ccc(CNC(=O)CCNS(=O)(=O)c2ccc3c(c2)CCC3)c(OC)c1 | > 100 µM (inactive) | 
51 | O=C(N/N=C/c1c(Cl)cccc1Cl)c1cc(O)c(O)c(O)c1 | > 100 µM (inactive) | 
52 | COc1ccc(OC)c(NC(=O)CCNS(=O)(=O)c2ccc3c(c2)oc(=O)n3C)c1 | > 100 µM (inactive) | 
53 | Cc1ccccc1CNC(=O)CCCNS(=O)(=O)c1ccc2[nH]c(=O)oc2c1 | > 100 µM (inactive) | 
